Reference: US5399743A, “Dipeptide derivative and prophylactic or therapeutic agent for bone diseases containing same as active ingredient” (Suntory Limited, priority 1992, dated 1995)
Entries after “also recorded” stand apart in the source; their conditions may differ.

Legend:
[1] = test system: Rat Hypercalcemia Induced by PTHrp(1-34); experiment: Rat hypercalcemia induced by PTHrp(1-34), subcutaneous administration; format: in vivo, Wistar rats; conditions: 40 mg/kg subcutaneously at the back; 2 h later PTHrp(1-34) 5 nmole/kg i.v.; blood 1 h after PTHrp; n = 5; PTHrp-only group 11.28 ± 0.08, untreated 10.68 ± 0.09
From the text: (§1) The active ingredient of the present invention normalizes the blood calcium concentration in rat hypercalcemia induced by PTHrp(1-34). PTHrp (parathyroid hormone-related protein) is a protein identified as the factor inducing hypercalcemia in humans. The fragment comprised of the 1 to 34th amino acid residues, that is, PTHrp(1-34), is the active type. The PTHrp(1-34) promotes bone resorption in vitro and induces hypercalcemia if administered to rats.
(§2) Using this model, the compound of the present invention was administered to Wistar rats, then PTHrp(1-34) was administered and the blood calcium concentration was measured after one hour after administration. […] That is, the compound of the present invention suppresses hypercalcemia induced by PTHrp(1-34), so is useful as a prophylactic or therapeutic agent for bone diseases.
(§3) In the same way as Example 7, to Wistar rats (5 weeks old, male, 90 to 110 g, 5 animals in each group), 40 mg/kg body weight of the compounds listed in Table 1 were administered subcutaneously at the back. Two hours later, 5 nmole/kg of PTHrp(1-34) was intravenously injected. One hour after the administration of PTHrp(1-34), a blood sample was collected from each animal and the blood calcium concentration was measured by the octocresolphthalein complexone method.

[2] = test system: Rat Hypercalcemia Induced by PTHrp(1-34); experiment: Rat hypercalcemia induced by PTHrp(1-34), oral administration; format: in vivo, Wistar rats
From the text: as §1, §2
as §3, with “To” for “In the same way as Example 7, to”, “orally. Four” for “subcutaneously at the back. Two”
Note that for reference, a similar evaluation was made of L-trans-epoxysuccinyl-L-leucineamide (e-guanide)-butane (E-64) Japanese Unexamined Patent Publication (Kokai) No. 63-284127 and the Z-Phe-Ala-CH2 F described in Japanese Examined Patent Publication (Kokoku) No. 4-1737.

rats = experiment: Acute toxicity LD50 after oral administration to rats; format: in vivo; conditions: in 20 hours
Method: The compound of the present invention is a low molecular weight dipeptide derivative, so the toxicity is low. For example, the acute toxicity LD50 of the compound 1 shown in Table 1 in 20 hours after oral administration to rats is over 1 g/kg.

[3] = 40 mg/kg orally; 4 h later PTHrp(1-34) 5 nmole/kg i.v.; blood 1 h after PTHrp; n = 5; PTHrp-only group 11.87 ± 0.14, untreated 11.42 ± 0.14

Row | SMILES | Ca conc. ± standard error (average blood calcium concentration) [1] [mg/dL] | Ca conc. ± standard error (average blood calcium concentration) [2, 3] [mg/dL] | effect on rise in blood calcium concentration (in words) ([2]; oral administration, 40 mg/kg, vs group treated with PTHrp(1-34) only) | acute toxicity LD50 (rats) | effect on rise in blood calcium concentration (in words) ([2]; oral administration, 40 mg/kg, vs group treated with PTHrp(1-34) only; 40 mg/kg)
1 | CC(C)C[C@H](NC(=O)[C@H]1O[C@@H]1C(=O)O)C(=O)NCCCCN=C(N)N (relative stereo) [Example E-64, L-trans-epoxysuccinyl-L-leucineamide (e-guanide)-butane] | 10.20 ± 0.09 | 11.09 ± 0.14 | significantly suppressed the rise in the blood calcium concentration |  | 
2 | CCCCC(NC(=O)C(CC(C)C)NC(=O)OCc1ccccc1)C(=O)CF (stereo not drawn) [Z-Leu-Nle-CH2 F, 3-(N-benzyloxycarbonyl-leucylamide)-1-fluoro-2-heptanone] |  | 11.09 ± 0.14 |  | over 1 g/kg | 
3 | CCCCC(NC(=O)C(CC(C)C)NC(C)=O)C(=O)CF (stereo not drawn) [Ac-Leu-Nle-CH2 F, 3-(N-acetyl-leucylamide)-1-fluoro-2-heptanone] | 10.13 ± 0.11 | 10.49 ± 0.09 |  |  | 
4 | CC(NC(=O)C(Cc1ccccc1)NC(=O)OCc1ccccc1)C(=O)CF (stereo not drawn) [Z-Phe-Ala-CH2 F, 3-(N-benzyloxycarbonylphenylalanylamide)-1-fluoro-2-butanone] |  | 12.02 ± 0.20 |  |  | did not exhibit an activity; also recorded: did not exhibit any action of normalizing the calcium concentration
